Reference: patent US8802597B2, “Herbicidal pyrimidines” (E I du Pont de Nemours and Company, priority 2003, dated 2014)

Legend:
Assay type in all cases: in vivo
[1] = test system: chickweed (Stellaria media); experiment: Test C postemergence; settings: for Chickweed plant response rating: 125 g ai/ha, scale 0 to 100 (0 no effect, 100 complete control)
Method in brief: (§1)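 Greenhouse herbicide screen, visual readout. Compound in solvent/surfactant applied preemergence at planting or postemergence to 1- to 4-leaf plants; assessed at 12–14 days on a 0–100 control scale.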

[2] = test system: lambsquarters (Chenopodium album); experiment: Test C pre/postemergence; settings: for Lambsquarters plant response rating: scale 0 to 100 (0 no effect, 100 complete control)
Method in brief: as §1

[3] = test system: velvetleaf (Abutilon theophrasti); experiment: Test C pre/postemergence; settings: for Velvetleaf plant response rating: 125 g ai/ha, scale 0 to 100 (0 no effect, 100 complete control)
Method in brief: as §1

[4] = test system: giant foxtail (Setaria faberii); experiment: Test C pre/postemergence; settings: for Foxtail, Giant plant response rating: scale 0 to 100 (0 no effect, 100 complete control)
Method in brief: as §1

[5] = test system: goosegrass (Eleusine indica); experiment: Test C pre/postemergence; settings: for Goosegrass plant response rating: scale 0 to 100 (0 no effect, 100 complete control)
Method in brief: as §1

[6] = test system: velvetleaf (Abutilon theophrasti); experiment: Test A pre/postemergence
Method in brief: (§2)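 Seeds in loam–sand blend received preemergence directed soil spray and, concurrently, postemergence application (plants 2–10 cm, 1–2-leaf stage) of compound in non-phytotoxic solvent with surfactant. After about ten days in greenhouse, injury rated visually versus untreated controls, 0 (no effect) to 100 (complete control).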

[7] = test system: barnyardgrass (Echinochloa crus-galli); experiment: Test A pre/postemergence
Method in brief: as §2

[8] = test system: giant foxtail (Setaria faberi); experiment: Test A pre/postemergence
Method in brief: as §2

[9] = test system: morningglory (Ipomoea spp.); experiment: Test A pre/postemergence
Method in brief: as §2

[10] = test system: redroot pigweed (Amaranthus retroflexus); experiment: Test A pre/postemergence
Method in brief: as §2

[11] = test system: crabgrass (Digitaria sanguinalis); experiment: Test A pre/postemergence
Method in brief: as §2

[12] = Postemergence, 125 g ai/ha, 0 to 100 scale (0 no effect, 100 complete control)
[13] = Postemergence, 500 g ai/ha, 0 to 100 scale (0 no effect, 100 complete control)
[14] = Preemergence, 125 g ai/ha, 0 to 100 scale where 0 is no effect and 100 is complete control, approximately ten days
[15] = Preemergence, 500 g ai/ha, 0 to 100 scale where 0 is no effect and 100 is complete control, approximately ten days
[16] = Preemergence, 16 g ai/ha, scale 0 to 100, 0 no effect, 100 complete control
[17] = Preemergence, 31 g ai/ha, scale 0 to 100, 0 no effect, 100 complete control
[18] = Preemergence, 62 g ai/ha, scale 0 to 100, 0 no effect, 100 complete control
[19] = Preemergence, 125 g ai/ha, scale 0 to 100
[20] = Postemergence, 250 g ai/ha, scale 0 to 100

## CCOC(=O)c1nc(-c2ccc(I)cc2)nc(N)c1Cl [Compound 133]
[1]; 16 g ai/ha
  Plant response rating (scale of 0 to 100), Chickweed: 0
[1]; 31 g ai/ha
  Plant response rating (scale of 0 to 100), Chickweed: 10
[1]; 62 g ai/ha
  Plant response rating (scale of 0 to 100), Chickweed: 20
[1]
  Chickweed plant response rating: 45
[2]; Postemergence, 16 g ai/ha
  Plant response rating (scale of 0 to 100), Lambsquarters: 95
[2]; Postemergence, 31 g ai/ha
  Plant response rating (scale of 0 to 100), Lambsquarters: 95
[2]; Postemergence, 62 g ai/ha
  Plant response rating (scale of 0 to 100), Lambsquarters: 95
[2]; Postemergence, 125 g ai/ha
  Lambsquarters plant response rating: 100
[3]; Postemergence, 16 g ai/ha
  Plant response rating (scale of 0 to 100), Velvetleaf: 80
[3]; Postemergence, 31 g ai/ha
  Plant response rating (scale of 0 to 100), Velvetleaf: 85
[3]; Postemergence, 62 g ai/ha
  Plant response rating (scale of 0 to 100), Velvetleaf: 85
[3]; Postemergence
  Velvetleaf plant response rating: 95
[4]; Postemergence, 16 g ai/ha
  Plant response rating (scale of 0 to 100), Foxtail, Giant: 15
[4]; Postemergence, 31 g ai/ha
  Plant response rating (scale of 0 to 100), Foxtail, Giant: 60
[4]; Postemergence, 62 g ai/ha
  Plant response rating (scale of 0 to 100), Foxtail, Giant: 70
[4]; Postemergence, 125 g ai/ha
  Foxtail, Giant plant response rating: 75
[5]; Postemergence, 16 g ai/ha
  Plant response rating (scale of 0 to 100), Goosegrass: 15
[5]; Postemergence, 31 g ai/ha
  Plant response rating (scale of 0 to 100), Goosegrass: 55
[5]; Postemergence, 62 g ai/ha
  Plant response rating (scale of 0 to 100), Goosegrass: 65
[5]; Postemergence, 125 g ai/ha
  Goosegrass plant response rating: 70
[6]; [12]
  Plant response rating, Velvetleaf: 80
[6]; [13]
  Plant response rating, Velvetleaf: 85
[6]; [14]
  Plant response rating, Velvetleaf: 10
[6]; [15]
  Plant response rating, Velvetleaf: 30
[7]; [12]
  Plant response rating, Barnyardgrass: 10
[7]; [13]
  Plant response rating, Barnyardgrass: 40
[7]; [14]
  Plant response rating, Barnyardgrass: 0
[7]; [15]
  Plant response rating, Barnyardgrass: 15
[8]; [12]
  Plant response rating, Foxtail, Giant: 15
[8]; [13]
  Plant response rating, Foxtail, Giant: 60
[8]; [14]
  Plant response rating, Foxtail, Giant: 0
[8]; [15]
  Plant response rating, Foxtail, Giant: 30
[9]; [12]
  Plant response rating, Morningglory: 70
[9]; [13]
  Plant response rating, Morningglory: 85
[9]; [14]
  Plant response rating, Morningglory: 0
[9]; [15]
  Plant response rating, Morningglory: 35
[10]; [12]
  Plant response rating, Pigweed: 80
[10]; [13]
  Plant response rating, Pigweed: 90
[10]; [14]
  Plant response rating, Pigweed: 10
[10]; [15]
  Plant response rating, Pigweed: 65
[11]; [12]
  Plant response rating, Crabgrass: 30
[11]; [13]
  Plant response rating, Crabgrass: 55
[11]; [14]
  Plant response rating, Crabgrass: 0
[11]; [15]
  Plant response rating, Crabgrass: 45

## Nc1nc(-c2ccc(Cl)cc2)nc(C(=O)[O-])c1Cl.[Na+] [Compound 117]
[1]; 16 g ai/ha
  Plant response rating (scale of 0 to 100), Chickweed: 30
[1]; 62 g ai/ha
  Plant response rating (scale of 0 to 100), Chickweed: 40
[2]; Postemergence, 16 g ai/ha
  Plant response rating (scale of 0 to 100), Lambsquarters: 95
[2]; Postemergence, 31 g ai/ha
  Plant response rating (scale of 0 to 100), Lambsquarters: 95
[2]; Postemergence, 62 g ai/ha
  Plant response rating (scale of 0 to 100), Lambsquarters: 95
[2]; Postemergence, 125 g ai/ha
  Lambsquarters plant response rating: 95
[2]; [16]
  Plant response rating, Lambsquarters: 20
[2]; [17]
  Plant response rating, Lambsquarters: 100
[2]; [18]
  Plant response rating, Lambsquarters: 100
[2]; [19]
  Plant response rating, Lambsquarters: 100
[3]; Postemergence, 16 g ai/ha
  Plant response rating (scale of 0 to 100), Velvetleaf: 60
[3]; Postemergence, 31 g ai/ha
  Plant response rating (scale of 0 to 100), Velvetleaf: 70
[3]; Postemergence, 62 g ai/ha
  Plant response rating (scale of 0 to 100), Velvetleaf: 95
[3]; Postemergence
  Velvetleaf plant response rating: 95
[3]; [16]
  Plant response rating, Velvetleaf: 0
[3]; [17]
  Plant response rating, Velvetleaf: 50
[3]; [18]
  Plant response rating, Velvetleaf: 65
[4]; Postemergence, 16 g ai/ha
  Plant response rating (scale of 0 to 100), Foxtail, Giant: 50
[4]; Postemergence, 31 g ai/ha
  Plant response rating (scale of 0 to 100), Foxtail, Giant: 55
[4]; Postemergence, 62 g ai/ha
  Plant response rating (scale of 0 to 100), Foxtail, Giant: 70
[4]; Postemergence, 125 g ai/ha
  Foxtail, Giant plant response rating: 80
[4]; [16]
  Plant response rating, Foxtail, Giant: 0
[4]; [17]
  Plant response rating, Foxtail, Giant: 0
[4]; [18]
  Plant response rating, Foxtail, Giant: 5
[4]; [19]
  Plant response rating, Foxtail, Giant: 50
[5]; Postemergence, 16 g ai/ha
  Plant response rating (scale of 0 to 100), Goosegrass: 40
[5]; Postemergence, 31 g ai/ha
  Plant response rating (scale of 0 to 100), Goosegrass: 40
[5]; Postemergence, 62 g ai/ha
  Plant response rating (scale of 0 to 100), Goosegrass: 75
[5]; Postemergence, 125 g ai/ha
  Goosegrass plant response rating: 80
[5]; [16]
  Plant response rating, Goosegrass: 0
[5]; [17]
  Plant response rating, Goosegrass: 0
[5]; [18]
  Plant response rating, Goosegrass: 0
[5]; [19]
  Plant response rating, Goosegrass: 30
[6]; [12]
  Plant response rating, Velvetleaf: 100
[6]; [13]
  Plant response rating, Velvetleaf: 100
[6]; [14]
  Plant response rating, Velvetleaf: 55
[6]; [15]
  Plant response rating, Velvetleaf: 100
[7]; [12]
  Plant response rating, Barnyardgrass: 85
[7]; [13]
  Plant response rating, Barnyardgrass: 90
[7]; [14]
  Plant response rating, Barnyardgrass: 25
[7]; [15]
  Plant response rating, Barnyardgrass: 85
[8]; [12]
  Plant response rating, Foxtail, Giant: 80
[8]; [13]
  Plant response rating, Foxtail, Giant: 90
[8]; [14]
  Plant response rating, Foxtail, Giant: 50
[8]; [15]
  Plant response rating, Foxtail, Giant: 85
[9]; [12]
  Plant response rating, Morningglory: 90
[9]; [13]
  Plant response rating, Morningglory: 90
[9]; [14]
  Plant response rating, Morningglory: 10
[9]; [15]
  Plant response rating, Morningglory: 85
[10]; [12]
  Plant response rating, Pigweed: 100
[10]; [13]
  Plant response rating, Pigweed: 100
[10]; [14]
  Plant response rating, Pigweed: 65
[10]; [15]
  Plant response rating, Pigweed: 100
[11]; [12]
  Plant response rating, Crabgrass: 75
[11]; [13]
  Plant response rating, Crabgrass: 90
[11]; [14]
  Plant response rating, Crabgrass: 45
[11]; [15]
  Plant response rating, Crabgrass: 75

## Nc1nc(-c2ccc(Cl)cc2)nc(C(=O)O)c1Br [Compound 88]
[1]; 31 g ai/ha
  Plant response rating (scale of 0 to 100), Chickweed: 80
[1]; 62 g ai/ha
  Plant response rating (scale of 0 to 100), Chickweed: 100
[1]
  Chickweed plant response rating: 100
[1]; 250 g ai/ha, scale 0 to 100
  Plant response rating, Chickweed: 100
[2]; Postemergence, 31 g ai/ha
  Plant response rating (scale of 0 to 100), Lambsquarters: 90
[2]; Postemergence, 62 g ai/ha
  Plant response rating (scale of 0 to 100), Lambsquarters: 95
[2]; Postemergence, 125 g ai/ha
  Lambsquarters plant response rating: 95
[2]; [20]
  Plant response rating, Lambsquarters: 100
[3]; Postemergence, 31 g ai/ha
  Plant response rating (scale of 0 to 100), Velvetleaf: 85
[3]; Postemergence, 62 g ai/ha
  Plant response rating (scale of 0 to 100), Velvetleaf: 90
[3]; Postemergence
  Velvetleaf plant response rating: 95
[3]; [20]
  Plant response rating, Velvetleaf: 95
[4]; Postemergence, 31 g ai/ha
  Plant response rating (scale of 0 to 100), Foxtail, Giant: 55
[4]; Postemergence, 62 g ai/ha
  Plant response rating (scale of 0 to 100), Foxtail, Giant: 75
[4]; Postemergence, 125 g ai/ha
  Foxtail, Giant plant response rating: 80
[4]; [20]
  Plant response rating, Foxtail, Giant: 85
[5]; Postemergence, 31 g ai/ha
  Plant response rating (scale of 0 to 100), Goosegrass: 50
[5]; Postemergence, 62 g ai/ha
  Plant response rating (scale of 0 to 100), Goosegrass: 75
[5]; Postemergence, 125 g ai/ha
  Goosegrass plant response rating: 75
[5]; [20]
  Plant response rating, Goosegrass: 80
[6]; [12]
  Plant response rating, Velvetleaf: 90
[6]; [13]
  Plant response rating, Velvetleaf: 95
[6]; [14]
  Plant response rating, Velvetleaf: 10
[6]; [15]
  Plant response rating, Velvetleaf: 70
[7]; [12]
  Plant response rating, Barnyardgrass: 50
[7]; [13]
  Plant response rating, Barnyardgrass: 85
[7]; [14]
  Plant response rating, Barnyardgrass: 10
[7]; [15]
  Plant response rating, Barnyardgrass: 55
[8]; [12]
  Plant response rating, Foxtail, Giant: 80
[8]; [13]
  Plant response rating, Foxtail, Giant: 90
[8]; [14]
  Plant response rating, Foxtail, Giant: 10
[8]; [15]
  Plant response rating, Foxtail, Giant: 50
[9]; [12]
  Plant response rating, Morningglory: 60
[9]; [13]
  Plant response rating, Morningglory: 85
[9]; [14]
  Plant response rating, Morningglory: 10
[9]; [15]
  Plant response rating, Morningglory: 90
[10]; [12]
  Plant response rating, Pigweed: 90
[10]; [13]
  Plant response rating, Pigweed: 95
[10]; [14]
  Plant response rating, Pigweed: 80
[10]; [15]
  Plant response rating, Pigweed: 100
[11]; [12]
  Plant response rating, Crabgrass: 60
[11]; [13]
  Plant response rating, Crabgrass: 85
[11]; [14]
  Plant response rating, Crabgrass: 35
[11]; [15]
  Plant response rating, Crabgrass: 85
